Assay results published in patent publication US7101568B2, “Methods and compositions for treating solid tumors” (Guilford Pharmaceuticals, Inc., priority 1999, dated 2006).

How the values were obtained:
[1] = system: H1299 tumor nodules; assay: Murine tumor nodule model, H1299 tumor volume doubling time; assay type: in vivo, mouse; settings: H1299, 24 mg/kg paclitaxel
Experimental: A murine tumor nodule model, a widely used and accepted model for investigating the efficacy of therapies for solid tumors, was used to establish the utility of sustained release for solid tumors. Athymic nude Balb/c mice were engrafted with human non-small cell lung cancer cell lines (A549 and H1299, both of which were obtained from the American Type Culture Collection).
(§1) The cells were grown to confluence in DMEM/F12 medium (Mediatech, Herndon, Va.) supplemented with 10% fetal bovine serum (“growth medium”) under antibiotic-free conditions at 37° in a 5% CO2 atmosphere. After growing under standard these tissue culture conditions, the cells were enzymatically detached, enumerated, and the concentration was adjusted as required.
(§2) The cells were mixed 1:1 with Matrigel™ as an enhancer for engraftment, and 2×10^6 cells were injected subcutaneously on the flanks. Tumors were allowed to grow until achieving a volume of approximately 200-400 mm^3, as determined by the formula: Tumor volume=(length)×(width)×(height) The dimensions of the tumor on each test animal were measured directly with calipers.
Various formulations of paclitaxel were administered to the test animals bearing tumors, either systemically or intratumorally. Each animal was weighed at the time of treatment so that dosages could be adjusted to achieve the mg/kg amounts reported. […]
Intratumoral administration (“IT”), on the other hand, was accomplished by the following procedure: • (1) injecting a single volume of about 100 μl (0.1 mL) the test composition into the center of the tumor nodule with a 21-25 gauge needle over a time period of about 10-20 seconds; • (2) infusing the volume over about 10-15 seconds, and then leaving the needle in place for an additional time of about 10-20 seconds; and • (3) withdrawing the needle. Following the treatments, all mice were tagged, and the tumors were measured three times weekly with calipers. […]
Time-dependent changes in H1299 tumor nodule growth and/or sizes following different treatments were determined. […]

[2] = system: A549 tumor nodules; assay: Murine tumor nodule model, A549 tumor volume doubling time; assay type: in vivo, mouse; settings: A549, 24 mg/kg paclitaxel
Experimental: Athymic nude Balb/c mice were engrafted with human non-small cell lung cancer cell lines (A549 and H1299, both of which were obtained from the American Type Culture Collection).
as §1, §2
Various formulations of paclitaxel were administered to the test animals bearing tumors, either systemically or intratumorally. Each animal was weighed at the time of treatment so that dosages could be adjusted to achieve the mg/kg amounts reported. Systemic administration was achieved by injecting the test composition into the intraperitoneal cavity of the test animal. For intraperitoneal (“IP”) injections, the animals received a total injection volume of approximately 1 mL.
Intratumoral administration (“IT”), on the other hand, was accomplished by the following procedure: • (1) injecting a single volume of about 100 μl (0.1 mL) the test composition into the center of the tumor nodule with a 21-25 gauge needle over a time period of about 10-20 seconds; • (2) infusing the volume over about 10-15 seconds, and then leaving the needle in place for an additional time of about 10-20 seconds; and • (3) withdrawing the needle. Following the treatments, all mice were tagged, and the tumors were measured three times weekly with calipers. Test animals were also weighed once weekly.
The tumor volume doubling time was determined from the tumor measurements in all treatment groups.

[3] = intratumoral, listed as conventional paclitaxel

SMILES: CC(=O)O[C@H]1C(=O)[C@@]2(C)[C@H]([C@H](OC(=O)c3ccccc3)[C@]3(O)C[C@H](OC(=O)[C@H](O)[C@@H](NC(=O)c4ccccc4)c4ccccc4)C(C)=C1C3(C)C)[C@]1(OC(C)=O)CO[C@@H]1C[C@@H]2O [conventionally formulated paclitaxel, paclitaxel]
- tumor volume doubling time ([1]; intraperitoneal): 12 ± 1.9 days
- tumor volume doubling time ([1]; intratumoral): 11.2 ± 1.9 days
- tumor volume doubling time [1, 3]: 11 days
- tumor volume doubling time ([2]; intraperitoneal): 11.5 ± 2.3 days
- tumor volume doubling time ([2]; intratumoral): 10.2 ± 4.7 days
- tumor volume doubling time [2, 3]: 10 days
